From the supplement of paper PMC10307832

Assays:
Assay in all cases: relative viability (nuclei count vs DMSO), 5 days (fraction); higher = more cells survive
JZL-184 + OSI-027 = compound: C1CN(CCC1C(C2=CC3=C(C=C2)OCO3)(C4=CC5=C(C=C4)OCO5)O)C(=O)OC6=CC=C(C=C6)[N+](=O)[O-] [JZL-184] + COc1cccc2cc(-c3nc([C@H]4CC[C@H](C(=O)O)CC4)n4ncnc(N)c34)[nH]c12 [OSI-027] (partner 0.5 µM)
Procedure, shortened: (§1)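 Lung cancer cell lines in 1536-well plates were dosed by pin tool the day after seeding, either with one drug alone or with a fixed anchor-drug dose plus five library-drug doses (not always all listed) in √10 steps. After 5 days, cells were fixed and their nuclei stained in one step (final 0.05% Triton X-100, 1% formaldehyde, 1 ug/ml Hoechst), then counted on 4× images. Relative viability is the nuclei count in treated wells divided by that in vehicle wells. Values are medians of duplicate plates.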

JZL-184 + Alpelisib = compound: C1CN(CCC1C(C2=CC3=C(C=C2)OCO3)(C4=CC5=C(C=C4)OCO5)O)C(=O)OC6=CC=C(C=C6)[N+](=O)[O-] [JZL-184] + Cc1nc(NC(=O)N2CCC[C@H]2C(N)=O)sc1-c1ccnc(C(C)(C)C(F)(F)F)c1 [Alpelisib] (partner 2 µM)
Procedure, shortened: as §1

JZL-184 + Phenformin = compound: C1CN(CCC1C(C2=CC3=C(C=C2)OCO3)(C4=CC5=C(C=C4)OCO5)O)C(=O)OC6=CC=C(C=C6)[N+](=O)[O-] [JZL-184] + N=C(N)NC(=N)NCCc1ccccc1 [Phenformin] (partner 250 µM)
Procedure, shortened: as §1

JZL-184 + Foretinib = compound: C1CN(CCC1C(C2=CC3=C(C=C2)OCO3)(C4=CC5=C(C=C4)OCO5)O)C(=O)OC6=CC=C(C=C6)[N+](=O)[O-] [JZL-184] + COc1cc2c(Oc3ccc(NC(=O)C4(C(=O)Nc5ccc(F)cc5)CC4)cc3F)ccnc2cc1OCCCN1CCOCC1 [Foretinib] (partner 0.25 µM)
Procedure, shortened: as §1

JZL-184 + Crizotinib = compound: C1CN(CCC1C(C2=CC3=C(C=C2)OCO3)(C4=CC5=C(C=C4)OCO5)O)C(=O)OC6=CC=C(C=C6)[N+](=O)[O-] [JZL-184] + C[C@@H](Oc1cc(-c2cnn(C3CCNCC3)c2)cnc1N)c1c(Cl)ccc(F)c1Cl [Crizotinib] (partner 1 µM)
Procedure, shortened: as §1

Row | Cell Line | relative viability (JZL-184 + OSI-027; first compound 0.04 µM) | relative viability (JZL-184 + OSI-027; first compound 0.4 µM) | relative viability (JZL-184 + OSI-027; first compound 1.265 µM) | relative viability (JZL-184 + OSI-027; first compound 4 µM) | relative viability (JZL-184 + Alpelisib; first compound 0.04 µM) | relative viability (JZL-184 + Alpelisib; first compound 0.4 µM) | relative viability (JZL-184 + Alpelisib; first compound 1.265 µM) | relative viability (JZL-184 + Alpelisib; first compound 4 µM) | relative viability (JZL-184 + Phenformin; first compound 0.04 µM) | relative viability (JZL-184 + Phenformin; first compound 0.4 µM) | relative viability (JZL-184 + Phenformin; first compound 1.265 µM) | relative viability (JZL-184 + Phenformin; first compound 4 µM) | relative viability (JZL-184 + Foretinib; first compound 0.04 µM) | relative viability (JZL-184 + Foretinib; first compound 0.4 µM) | relative viability (JZL-184 + Foretinib; first compound 1.265 µM) | relative viability (JZL-184 + Foretinib; first compound 4 µM) | relative viability (JZL-184 + Crizotinib; first compound 0.04 µM) | relative viability (JZL-184 + Crizotinib; first compound 0.4 µM) | relative viability (JZL-184 + Crizotinib; first compound 1.265 µM) | relative viability (JZL-184 + Crizotinib; first compound 4 µM)
1 | NCI-H2087 | 0.519 | 0.514 | 0.579 | 0.436 | 1.11 | 1.02 | 1.11 | 1.01 | 0.538 | 0.449 | 0.515 | 0.486 | 1.01 | 1.03 | 1.17 | 1.19 | 0.928 | 0.816 | 0.757 | 0.93
2 | NCI-H2126 | 0.636 | 0.64 | 0.804 | 0.683 | 0.721 | 0.738 | 0.802 | 0.717 | 0.6 | 0.541 | 0.538 | 0.532 | 1.15 | 1.09 | 1.14 | 1.12 | 1.04 | 1.02 | 1.06 | 1.02
3 | NCI-H2170 | 0.721 | 0.758 | 0.759 | 0.682 | 0.806 | 0.793 | 0.74 | 0.736 | 0.435 | 0.407 | 0.419 | 0.419 | 1.05 | 0.941 | 0.977 | 0.966 | 1.38 | 1.17 | 1.27 | 1.17
4 | NCI-H2228 | 0.643 | 0.51 | 0.613 | 0.632 | 0.894 | 0.726 | 0.709 | 0.789 | 0.405 | 0.239 | 0.317 | 0.412 | 1.07 | 0.701 | 0.992 | 0.803 | 0.543 | 0.442 | 0.517 | 0.511
5 | NCI-H2347 | 0.396 | 0.393 | 0.419 | 0.477 | 1.05 | 1.02 | 1.05 | 1.1 | 0.357 | 0.393 | 0.369 | 0.536 | 0.771 | 0.884 | 1.13 | 1.3 | 0.968 | 0.835 | 0.694 | 0.72
6 | NCI-H2405 | 0.608 | 0.608 | 0.651 | 0.615 | 0.673 | 0.794 | 0.83 | 0.816 | 0.336 | 0.398 | 0.419 | 0.392 | 1.08 | 1.06 | 1.13 | 1 | 0.87 | 0.857 | 0.968 | 0.811
7 | NCI-H3122 | 1.14 | 0.902 | 0.944 | 0.862 | 0.751 | 0.813 | 0.646 | 0.804 | 0.38 | 0.387 | 0.376 | 0.39 | 1.03 | 0.954 | 0.944 | 0.983 | 0.27 | 0.237 | 0.282 | 0.323
8 | PC-3 [JPC-3] | 0.732 | 0.724 | 0.782 | 0.749 | 1.09 | 0.961 | 1.05 | 1.01 | 0.45 | 0.464 | 0.495 | 0.487 | 1.08 | 0.975 | 1.09 | 0.913 | 1.02 | 1.03 | 1.01 | 0.974
9 | PC-14 | 1.07 | 0.831 | 0.853 | 0.72 | 0.975 | 0.892 | 0.965 | 0.847 | 0.756 | 0.473 | 0.72 | 0.504 | 1.02 | 0.927 | 0.954 | 0.946 | 0.909 | 0.966 | 0.828 | 0.86
10 | RERF-LC-KJ | 0.58 | 0.625 | 0.562 | 0.478 | 0.753 | 0.761 | 0.837 | 0.804 | 0.479 | 0.357 | 0.382 | 0.371 | 0.933 | 0.9 | 0.876 | 0.781 | 0.844 | 0.75 | 0.856 | 0.742
11 | SK-LU-1 | 0.405 | 0.341 | 0.423 | 0.358 | 1.51 | 0.931 | 1.3 | 1.06 | 0.528 | 0.504 | 0.677 | 0.564 | 0.909 | 0.77 | 0.919 | 0.722 | 1.05 | 0.889 | 1.15 | 1.11
12 | SK-MES-1 | 0.597 | 0.625 | 0.673 | 0.535 | 0.938 | 0.851 | 0.863 | 0.896 | 0.736 | 0.64 | 0.688 | 0.615 | 1.01 | 1.02 | 1.02 | 0.86 | 1.03 | 0.867 | 1.01 | 0.924
13 | SW 1573 | 0.733 | 0.548 | 0.591 | 0.525 | 0.873 | 0.605 | 0.894 | 0.75 | 0.446 | 0.296 | 0.373 | 0.283 | 1.06 | 0.791 | 0.94 | 0.829 | 0.904 | 0.724 | 0.883 | 0.759
14 | UMC-11 | 0.612 | 0.461 | 0.499 | 0.457 | 1.39 | 0.904 | 0.924 | 0.96 | 0.289 | 0.319 | 0.3 | 0.331 | 1.09 | 0.883 | 1.11 | 1.09 | 0.787 | 0.679 | 0.555 | 0.57
